# Laboratory results reported in patent US20260347353A1, “INDOLIZINE DERIVATIVES FOR TREATING CANCER” (Antares Therapeutics, Inc., priority 2022, published 2026).
# pIC50, pKd: −log10 of the molar value.
# Tests used:
# [1] = biological target: T1, p53 Y220C mutant protein (amino acid residues 94-293) (Homo sapiens, UniProt P04637, Y220C); assay: Surface Plasmon Resonance (SPR) assay, p53 Y220C Kd_kinetic; details: multi-cycle kinetics, 16 or 20 °C, pH 7.5, 1:1 binding model
# T1 construct: p53 Y220C mutant protein (amino acid residues 94-293)
# Outline: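 Kd from multi-cycle SPR kinetics fitted to a 1:1 model, using 2-fold, 7-point compound series over p53 Y220C (residues 94-293). Flow 30 μL/min, 60 s association, 120 s dissociation, at 16 or 20 °C in 50 mM Tris pH 7.5, 100 mM NaCl, 1 mM DTT, 0.01% Brij35, 0.05% Tween-20, 1% DMSO.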
# [2] = test system: NCIH1299-inducible p53 Y220C cells; assay: Cell Proliferation Assay (CellTiter-Glo), NCIH1299-inducible p53 Y220C; type: cell-based; details: Homo sapiens, NCI-H1299, 120 h, 5 days, read-out: CTG H1299 P53 Y220C IC50
# Protocol: Inducible p53 Y220C and R273H constructs (Tet-One inducible expression system; Takara) were stably expressed in NCIH1299 cells by lentiviral transduction. NUGC3, A549, BxPC3, T3M4, HuH7, HCC2935, MFE296, NCIH1299, NCIH1299-inducible p53 Y220C, and NCIH1299-inducible p53 R273H cell lines were used for cell proliferation assay. 250-500 cells were seeded in each well of 384 plate and then compounds were dispensed into each well using Echo or Tecan. After 5 days of incubation, equal volume of CellTiter-Glo reagent (G7570; Promega) was added into each well and the plate was incubated at room temperature for 10 minutes with shaking. The luminescent signal was measured by PheraStar microplate reader and IC50 was calculated.
# NUGC3 cells (p53 Y220C) = assay: Cell Proliferation Assay (CellTiter-Glo), NUGC3 p53 Y220C; type: cell-based; details: Homo sapiens, NUGC-3, 120 h, 5 days, read-out: CTG NUGC3 P53 Y220C IC50
# Outline: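 Seeded at 250–500 cells/well, then compound-treated for 5 days; the NCIH1299 lines carry Tet-One inducible p53 Y220C or R273H transduced lentivirally. Viability by CellTiter-Glo luminescence after 10 min at room temperature; IC50 calculated.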
# p53 Y220C = p53 Y220C (Homo sapiens, UniProt P04637, Y220C); assay: Luciferase Reporter Assay, p53 Y220C (NCIH1299 cells with inducible p53 Y220C and p53 response element-luciferase); type: cell-based; details: 6 hour compound treatment, read-out: Luc P53 Y220C AC50
# Outline: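 NCI-H1299 cells stably carrying a p53 response element-luciferase reporter and Tet-inducible p53 Y220C were induced with 0.5 ug/mL doxycycline for 24 h, then treated with compound for 6 h. Luminescence was read after One-Glo addition. AC50 was derived relative to 10 uM tool compound as positive control.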
# T1 sequence (P04637 94-293, stated change not applied): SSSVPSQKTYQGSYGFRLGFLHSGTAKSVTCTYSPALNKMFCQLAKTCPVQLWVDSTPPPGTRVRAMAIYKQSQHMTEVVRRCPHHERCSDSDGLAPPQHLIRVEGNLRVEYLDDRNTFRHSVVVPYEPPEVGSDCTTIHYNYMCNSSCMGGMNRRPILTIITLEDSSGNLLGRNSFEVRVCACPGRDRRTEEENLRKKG
SMILES,pKd [1],AC50 (p53 Y220C),pIC50 [2],pIC50 (NUGC3 cells (p53 Y220C))
"CN1CC[C@@H](Nc2cccn3c(SC(F)(F)F)c(-c4noc(CNC(=O)c5ccc6c(c5)NC(=O)CN6C)n4)cc23)[C@@H](F)C1 [Example 23, N-{[3-(8-{[(3S,4R)-3-fluoro-1-methylpiperidin-4-yl]amino}-3-[(trifluoromethyl)sulfanyl]indolizin-2-yl)-1,2,4-oxadiazol-5-yl]methyl}-1-methyl-3-oxo-2,4-dihydroquinoxaline-6-carboxamide]",> 8.00,< 750 nM,> 6.12,> 6.12
"CN1CC[C@@H](Nc2cccn3c(SC(F)(F)F)c(-c4noc(CNC(=O)C5(O)CC5)n4)cc23)[C@@H](F)C1 [Example 24, N-{[3-(8-{[(3S,4R)-3-fluoro-1-methylpiperidin-4-yl]amino}-3-[(trifluoromethyl)sulfanyl]indolizin-2-yl)-1,2,4-oxadiazol-5-yl]methyl}-1-hydroxycyclopropane-1-carboxamide]",> 8.00,< 750 nM,5.82 to 6.12,5.82 to 6.12
"CN1CC[C@@H](Nc2cccn3c(SC(F)(F)F)c(-c4noc(CNC(=O)C5COC5)n4)cc23)[C@@H](F)C1 [Example 25, N-{[3-(8-{[(3S,4R)-3-fluoro-1-methylpiperidin-4-yl]amino}-3-[(trifluoromethyl)sulfanyl]indolizin-2-yl)-1,2,4-oxadiazol-5-yl]methyl}oxetane-3-carboxamide]",> 8.00,1500 to 3000 nM,5.52 to 5.82,5.52 to 5.82
CN1CC[C@@H](Nc2cccn3c(SC(F)(F)F)c(-c4noc(CNC(=O)[C@H]5COCCO5)n4)cc23)[C@@H](F)C1 [Example 29],> 8.00,750 to 1500 nM,5.82 to 6.12,5.82 to 6.12
"CN1CC[C@@H](Nc2cccn3c(SC(F)(F)F)c(-c4noc(CNC(=O)C#CC5(C)CC5)n4)cc23)[C@@H](F)C1 [Example 31, N-{[3-(8-{[(3S,4R)-3-fluoro-1-methylpiperidin-4-yl]amino}-3-[(trifluoromethyl)sulfanyl]indolizin-2-yl)-1,2,4-oxadiazol-5-yl]methyl}-3-(1-methylcyclopropyl)prop-2-ynamide]",> 8.00,< 750 nM,> 6.12,> 6.12
"CN1CC[C@@H](Nc2cccn3c(SC(F)(F)F)c(-c4noc(CNC(=O)c5sccc5F)n4)cc23)[C@@H](F)C1 [Example 32, 3-fluoro-N-{[3-(8-{[(3S,4R)-3-fluoro-1-methylpiperidin-4-yl]amino}-3-[(trifluoromethyl)sulfanyl]indolizin-2-yl)-1,2,4-oxadiazol-5-yl]methyl}thiophene-2-carboxamide]",> 8.00,< 750 nM,> 6.12,> 6.12
"CN1CC[C@@H](Nc2cccn3c(SC(F)(F)F)c(-c4noc(CNC(=O)c5sccc5N)n4)cc23)[C@@H](F)C1 [Example 33, 3-amino-N-{[3-(8-{[(3S,4R)-3-fluoro-1-methylpiperidin-4-yl]amino}-3-[(trifluoromethyl)sulfanyl]indolizin-2-yl)-1,2,4-oxadiazol-5-yl]methyl}thiophene-2-carboxamide]",> 8.00,< 750 nM,> 6.12,> 6.12
"COc1csc(C(=O)NCc2nc(-c3cc4c(N[C@@H]5CCN(C)C[C@@H]5F)cccn4c3SC(F)(F)F)no2)c1 [Example 37, N-{[3-(8-{[(3S,4R)-3-fluoro-1-methylpiperidin-4-yl]amino}-3-[(trifluoromethyl)sulfanyl]indolizin-2-yl)-1,2,4-oxadiazol-5-yl]methyl}-4-methoxythiophene-2-carboxamide]",> 8.00,< 750 nM,> 6.12,> 6.12
"CN1CC[C@@H](Nc2cccn3c(SC(F)(F)F)c(-c4noc(CNC(=O)c5cc(C#N)cs5)n4)cc23)[C@@H](F)C1 [Example 38, 4-cyano-N-{[3-(8-{[(3S,4R)-3-fluoro-1-methylpiperidin-4-yl]amino}-3-[(trifluoromethyl)sulfanyl]indolizin-2-yl)-1,2,4-oxadiazol-5-yl]methyl}thiophene-2-carboxamide]",7.00 to 8.00,750 to 1500 nM,> 6.12,> 6.12

# Further lines, with some results ahead:
pKd [1],AC50 (p53 Y220C),SMILES,pIC50 [2],pIC50 (NUGC3 cells (p53 Y220C))
7.00 to 8.00,1500 to 3000 nM,"COC1(C(=O)NCc2nc(-c3cc4c(N[C@@H]5CCN(C)C[C@@H]5F)cccn4c3SC(F)(F)F)no2)CC1 [Example 26, N-{[3-(8-{[(3S,4R)-3-fluoro-1-methylpiperidin-4-yl]amino}-3-[(trifluoromethyl)sulfanyl]indolizin-2-yl)-1,2,4-oxadiazol-5-yl]methyl}-1-methoxycyclopropane-1-carboxamide]",5.52 to 5.82,5.52 to 5.82
> 8.00,< 750 nM,"CN1CC[C@@H](Nc2cccn3c(SC(F)(F)F)c(-c4noc(CNC(=O)c5ccns5)n4)cc23)[C@@H](F)C1 [Example 27, N-{[3-(8-{[(3S,4R)-3-fluoro-1-methylpiperidin-4-yl]amino}-3-[(trifluoromethyl)sulfanyl]indolizin-2-yl)-1,2,4-oxadiazol-5-yl]methyl}-1,2-thiazole-5-carboxamide]",5.82 to 6.12,> 6.12
7.00 to 8.00,750 to 1500 nM,"Cc1ccsc1C(=O)NCc1nc(-c2cc3c(N[C@@H]4CCN(C)C[C@@H]4F)cccn3c2SC(F)(F)F)no1 [Example 30, N-{[3-(8-{[(3S,4R)-3-fluoro-1-methylpiperidin-4-yl]amino}-3-[(trifluoromethyl)sulfanyl]indolizin-2-yl)-1,2,4-oxadiazol-5-yl]methyl}-3-methylthiophene-2-carboxamide]",5.52 to 5.82,5.52 to 5.82
7.00 to 8.00,≥ 3000 nM,"COc1ccc2nc(C(=O)NCc3nc(-c4cc5c(N[C@@H]6CCN(C)C[C@@H]6F)cccn5c4SC(F)(F)F)no3)ccc2c1 [Example 34, N-{[3-(8-{[(3S,4R)-3-fluoro-1-methylpiperidin-4-yl]amino}-3-[(trifluoromethyl)sulfanyl]indolizin-2-yl)-1,2,4-oxadiazol-5-yl]methyl}-6-methoxyquinoline-2-carboxamide]",5.52 to 5.82,5.52 to 5.82
7.00 to 8.00,≥ 3000 nM,"COc1ccc2cc(C(=O)NCc3nc(-c4cc5c(N[C@@H]6CCN(C)C[C@@H]6F)cccn5c4SC(F)(F)F)no3)n(C)c2c1 [Example 35, N-{[3-(8-{[(3S,4R)-3-fluoro-1-methylpiperidin-4-yl]amino}-3-[(trifluoromethyl)sulfanyl]indolizin-2-yl)-1,2,4-oxadiazol-5-yl]methyl}-6-methoxy-1-methylindole-2-carboxamide]",5.52 to 5.82,5.52 to 5.82
7.00 to 8.00,1500 to 3000 nM,"CN1CC[C@@H](Nc2cccn3c(SC(F)(F)F)c(-c4noc(CNC(=O)C5(F)CCOCC5)n4)cc23)[C@@H](F)C1 [Example 36, 4-fluoro-N-{[3-(8-{[(3S,4R)-3-fluoro-1-methylpiperidin-4-yl]amino}-3-[(trifluoromethyl)sulfanyl]indolizin-2-yl)-1,2,4-oxadiazol-5-yl]methyl}oxane-4-carboxamide]",5.52 to 5.82,5.52 to 5.82
7.00 to 8.00,750 to 1500 nM,"CN1CC[C@@H](Nc2cccn3c(SC(F)(F)F)c(-c4noc(CNC(=O)c5ccc(C#N)s5)n4)cc23)[C@@H](F)C1 [Example 39, 5-cyano-N-{[3-(8-{[(3S,4R)-3-fluoro-1-methylpiperidin-4-yl]amino}-3-[(trifluoromethyl)sulfanyl]indolizin-2-yl)-1,2,4-oxadiazol-5-yl]methyl}thiophene-2-carboxamide]",> 6.12,> 6.12
7.00 to 8.00,< 750 nM,"CN1CC[C@@H](Nc2cccn3c(SC(F)(F)F)c(-c4noc(CNC(=O)c5ccc6ncsc6c5)n4)cc23)[C@@H](F)C1 [Example 40, N-{[3-(8-{[(3S,4R)-3-fluoro-1-methylpiperidin-4-yl]amino}-3-[(trifluoromethyl)sulfanyl]indolizin-2-yl)-1,2,4-oxadiazol-5-yl]methyl}-1,3-benzothiazole-6-carboxamide]",> 6.12,> 6.12
7.00 to 8.00,750 to 1500 nM,"CN1CC[C@@H](Nc2cccn3c(SC(F)(F)F)c(-c4noc(CNC(=O)c5sccc5OC(F)F)n4)cc23)[C@@H](F)C1 [Example 41, 3-(difluoromethoxy)-N-{[3-(8-{[(3S,4R)-3-fluoro-1-methylpiperidin-4-yl]amino}-3-[(trifluoromethyl)sulfanyl]indolizin-2-yl)-1,2,4-oxadiazol-5-yl]methyl}thiophene-2-carboxamide]",5.82 to 6.12,5.82 to 6.12
